Where “and” joins values, the source holds several entries; their conditions need not be identical. Equal entries are not always repeated. Where two headings read alike, the source gives them in different places. Where a SMILES comes first, the peptide text is derived from it. [ ]: non-standard residue; d: D form. NMeL = CN[C@@H](CC(C)C)C(=O)O; dNMeL = CN[C@H](CC(C)C)C(=O)O; Sar = CNCC(=O)O
Tests used:
[1] = Parallel artificial membrane permeability assay (PAMPA); conditions: average of replicates R1-R3; BQL = no significant peak detected for the peptide in the acceptor wells
[2] = Pharmacokinetics and oral bioavailability of D11.2 in male SD rats (IV, PO, SQ); format: in vivo; conditions: for half-life: read-out: T1/2z (converted); for MRT inf: in vivo
Protocol: In vivo bioavailability assays were conducted in mice and rats. D8.3.p1 and D10.1 were studied in female Balb/C mice by van Voorhis group at University of Washington. D11.2 was evaluated in Sprague Dawley (SD) rats by Robert Griffin’s group at Takeda Pharmaceuticals. D11.3 was studied in the male swiss albino mice by the contract research organization, GVK Biosciences Pvt. Ltd., Hyderabad, India. All animals used in these studies were handled in strict accordance with practices made to minimize suffering. All animal experiments conducted at the University of Washington, USA, and Takeda Pharmaceuticals, USA were approved by the Institutional Animal Care and Use Committee. Animal studies at GVK Biosciences were reviewed and approved by the Institutional Animal Ethics Committee of GVK Biosciences.
We selected four designed macrocycles with diverse structures and in vitro rates of permeability for in vivo oral bioavailability studies in the rodent models. Due to the intensive resource requirements for such studies, these studies were conducted by three different research groups. D8.3.p1 and D10.1 were studied in female Balb/C mice by van Voorhis group at University of Washington. D11.2 was evaluated in Sprague Dawley (SD) rats by Robert Griffin’s group at Takeda Pharmaceuticals. D11.3 was studied in the male swiss albino mice by the contract research organization, GVK Biosciences Pvt. Ltd., Hyderabad, India.
We evaluated the pharmacokinetic properties for D11.2 in male SD rats (n=3). D11.2 was dissolved in 2% DMSO/0.1% Tween80 and dosed by IV, PO, and SQ routes. Plasma samples were collected at multiple time points up to 24 hours. The quantification limit was established to be 2 ng/mL for the assay conditions tested. Pharmacokinetic parameters were modeled using the Phoenix WinNonlin software package.
Dosing vehicle: DMSO (2%) + 0.1% Tween80(IV, PO, SQ)
Dose: 1 mg/kg (PO, SQ, IV) • Sampling times: 0.083, 0.25, 0.5, 1, 2, 4, 6, 8, 24 h (PO, SQ, IV)

[3] = IV 1 mg/kg, individual rats R1, R2, R3, 1 mg/kg
[4] = PO 1 mg/kg, individual rats R4, R5, R6, 1 mg/kg
[5] = SQ 1 mg/kg, individual rats R7, R8, R9
[6] = male, Sprague Dawley, rat, plasma, iv, 1 mg/kg, IV 1 mg/kg, Mean
[7] = male, Sprague Dawley, rat, plasma, iv, 1 mg/kg, IV 1 mg/kg, individual rats R1, R2, R3
[8] = male, Sprague Dawley, rat, plasma, po, 1 mg/kg, PO 1 mg/kg, Mean
[9] = male, Sprague Dawley, rat, plasma, po, 1 mg/kg, PO 1 mg/kg, individual rats R4, R5, R6
[10] = male, Sprague-Dawley, rat, plasma, subcutaneous, 1 mg/kg, SQ 1 mg/kg, Mean
[11] = male, Sprague-Dawley, rat, plasma, subcutaneous, 1 mg/kg, SQ 1 mg/kg, individual rats R7, R8, R9

CC[C@@H](C)[C@H]1NC(=O)[C@@H](CC(C)C)NC(=O)[C@@H](CC(C)C)N(C)C(=O)[C@@H]2CCCN2C(=O)[C@@H](C(C)C)NC(=O)[C@H](CC(C)C)NC(=O)[C@@H](CC(C)C)N(C)C(=O)[C@@H]2CCCN2C1=O [Design D8.3.p1, DLEU DVAL PRO *DLEU DLEU DILE PRO *DLEU] (cyclo(L[dV]P[dNMeL][dL][dI]P[dNMeL]))
PAMPA_Papp_Avg [1]: 4.61E-06

CC[C@@H](C)[C@H]1NC(=O)[C@@H]2CCCN2C(=O)[C@@H]([C@H](C)CC)NC(=O)CN(C)C(=O)[C@H](CC(C)C)NC(=O)[C@@H](Cc2ccccc2)NC(=O)[C@H](CC(C)C)N(C)C(=O)[C@H]2CCCN2C(=O)[C@@H](CC(C)C)NC(=O)[C@H](CC(C)C)NC(=O)[C@H]2CCCN2C1=O [Design D11.2, DILE DPRO LEU DLEU DPRO *LEU DPHE LEU *GLY DILE PRO] (cyclo(L[Sar][dI]P[dI][dP]L[dL][dP][NMeL][dF]))
AUClast [2, 3]: 702 ng·h/mL and 858 ng·h/mL
AUC∞ [2, 3]: 738 ng·h/mL and 926 ng·h/mL
C0 [2, 3]: 669 ng/mL and 1234 ng/mL
CL [2, 3]: 22.5 mL/min/kg and 18 mL/min/kg
Cmax [2, 3]: 796 ng/mL and 499 ng/mL
MRT∞ [2, 3]: 2.34 h and 2.51 h
T1/2z [2, 3]: 2.05 h and 2.74 h
Vss [2, 3]: 3.17 L/kg and 2.72 L/kg
Vz [2, 3]: 4.00 L/kg and 4.27 L/kg
%F [2, 4]: 13.0% and 8.18%
AUClast [2, 4]: 89.3 ng·h/mL and 59.1 ng·h/mL
AUC∞ [2, 4]: 95.9 ng·h/mL and 75.8 ng·h/mL
Cmax [2, 4]: 35.2 ng/mL and 28.2 ng/mL
MRT∞ [2, 4]: 3.02 h and 3.86 h
T1/2z [2, 4]: 2.06 h and 2.53 h
Tmax [2, 4]: 0.250 h
%F [2, 5]: 160% and 105%
AUClast [2, 5]: 741 ng·h/mL and 841 ng·h/mL
AUC∞ [2, 5]: 777 ng·h/mL and 853 ng·h/mL
Cmax [2, 5]: 99.4 ng/mL and 95.1 ng/mL
MRT∞ [2, 5]: 7.64 h and 6.14 h
T1/2z [2, 5]: 5.00 h and 3.71 h
AUC(0-inf) [2, 6]: 780 ng·h/mL
AUC(0-t) [2, 6]: 734 ng·h/mL
clearance [2, 6]: 21.8 mL/min/kg
C0 ([2]; male, Sprague Dawley, rat, plasma, iv, 1 mg/kg, IV 1 mg/kg, Mean, read-out: C0): 843 ng/mL
Cmax ([2]; male, Sprague Dawley, rat, plasma, iv, 1 mg/kg, IV 1 mg/kg, Mean, read-out: Cmax): 605 ng/mL
half-life [2, 6]: 2.29 h
Tmax ([2]; male, Sprague Dawley, rat, plasma, iv, 1 mg/kg, IV 1 mg/kg, Mean, read-out: Tmax): 0.0833 h
Vd ([2]; male, Sprague Dawley, rat, plasma, iv, 1 mg/kg, IV 1 mg/kg, Mean, read-out: Vss): 3.04 L/kg
Vd ([2]; male, Sprague Dawley, rat, plasma, iv, 1 mg/kg, IV 1 mg/kg, Mean, read-out: Vz): 4.24 L/kg
AUC(0-inf) [2, 7]: 674 ng·h/mL
AUC(0-t) [2, 7]: 642 ng·h/mL
clearance [2, 7]: 24.7 mL/min/kg
C0 ([2]; male, Sprague Dawley, rat, plasma, iv, 1 mg/kg, IV 1 mg/kg, individual rats R1, R2, R3, read-out: C0): 626 ng/mL
Cmax ([2]; male, Sprague Dawley, rat, plasma, iv, 1 mg/kg, IV 1 mg/kg, individual rats R1, R2, R3, read-out: Cmax): 519 ng/mL
half-life [2, 7]: 2.08 h
Tmax ([2]; male, Sprague Dawley, rat, plasma, iv, 1 mg/kg, IV 1 mg/kg, individual rats R1, R2, R3, read-out: Tmax): 0.0833 h
Vd ([2]; male, Sprague Dawley, rat, plasma, iv, 1 mg/kg, IV 1 mg/kg, individual rats R1, R2, R3, read-out: Vss): 3.23 L/kg
Vd ([2]; male, Sprague Dawley, rat, plasma, iv, 1 mg/kg, IV 1 mg/kg, individual rats R1, R2, R3, read-out: Vz): 4.46 L/kg
AUC(0-inf) [2, 8]: 84.3 ng·h/mL
AUC(0-t) [2, 8]: 71.7 ng·h/mL
bioavailability [2, 8]: 11.1%
Cmax ([2]; male, Sprague Dawley, rat, plasma, po, 1 mg/kg, PO 1 mg/kg, Mean, read-out: Cmax): 31.6 ng/mL
half-life [2, 8]: 2.33 h
Tmax ([2]; male, Sprague Dawley, rat, plasma, po, 1 mg/kg, PO 1 mg/kg, Mean, read-out: Tmax): 0.416 h
AUC(0-inf) [2, 9]: 81.3 ng·h/mL
AUC(0-t) [2, 9]: 66.8 ng·h/mL
bioavailability [2, 9]: 12.1%
Cmax ([2]; male, Sprague Dawley, rat, plasma, po, 1 mg/kg, PO 1 mg/kg, individual rats R4, R5, R6, read-out: Cmax): 31.3 ng/mL
half-life [2, 9]: 2.42 h
Tmax ([2]; male, Sprague Dawley, rat, plasma, po, 1 mg/kg, PO 1 mg/kg, individual rats R4, R5, R6, read-out: Tmax): 0.5 h
Cmax ([2]; male, Sprague Dawley, rat, plasma, sc, 1 mg/kg, SQ 1 mg/kg, Mean, read-out: Cmax): 109 ng/mL
half-life ([2]; male, Sprague Dawley, rat, plasma, sc, 1 mg/kg, SQ 1 mg/kg, Mean): 4.41 h
Tmax ([2]; male, Sprague Dawley, rat, plasma, sc, 1 mg/kg, SQ 1 mg/kg, Mean, read-out: Tmax): 4 h
Cmax ([2]; male, Sprague Dawley, rat, plasma, subcutaneous, 1 mg/kg, SQ 1 mg/kg, individual rats R7, R8, R9, read-out: Cmax): 131 ng/mL
half-life ([2]; male, Sprague Dawley, rat, plasma, subcutaneous, 1 mg/kg, SQ 1 mg/kg, individual rats R7, R8, R9): 4.52 h
Tmax ([2]; male, Sprague Dawley, rat, plasma, subcutaneous, 1 mg/kg, SQ 1 mg/kg, individual rats R7, R8, R9, read-out: Tmax): 4 h
bioavailability ([2]; male, Sprague-Dawley, rat, plasma, sc, 1 mg/kg, SQ 1 mg/kg, individual rats R7, R8, R9): 92.1%
AUC(0-inf) [2, 10]: 903 ng·h/mL
AUC(0-t) [2, 10]: 874 ng·h/mL
bioavailability [2, 10]: 119%
AUC(0-inf) [2, 11]: 1080 ng·h/mL
AUC(0-t) [2, 11]: 1040 ng·h/mL
MRT inf ([2]; rat, 1 mg/kg, SQ 1 mg/kg, Mean): 6.86 h
MRT inf ([2]; rat, 1 mg/kg, SQ 1 mg/kg, individual rats R7, R8, R9): 6.81 h
MRT inf ([2]; rat, iv, 1 mg/kg, IV 1 mg/kg, Mean): 2.35 h
MRT inf ([2]; rat, iv, 1 mg/kg, IV 1 mg/kg, individual rats R1, R2, R3): 2.18 h
MRT inf ([2]; rat, po, 1 mg/kg, PO 1 mg/kg, Mean): 3.42 h
MRT inf ([2]; rat, po, 1 mg/kg, PO 1 mg/kg, individual rats R4, R5, R6): 3.38 h
